In the CheMixHub viscosity set:

Test: xn = mol fraction of the nth substance listed

CC1=CCC(=C(C)C)CC1 + Brc1ccccc1
viscosity [mPa·s], 101 kPa
Details	x1 = 0.0687	x1 = 0.1424	x1 = 0.2216	x1 = 0.307	x1 = 0.3992	x1 = 0.4992	x1 = 0.6079	x1 = 0.7266	x1 = 0.8567
303.15 K	0.993	1	1.011	1.023	1.032	1.036	1.033	1.023	1.01
308.15 K	0.942	0.948	0.957	0.967	0.975	0.979	0.973	0.962	0.947
313.15 K	0.893	0.897	0.905	0.913	0.919	0.922	0.915	0.903	0.887

CCc1ccccc1 + C1CCCCC1
303.15 K, 101 kPa
Details	viscosity [mPa·s]
x2 = 0.1	0.5951
x2 = 0.199	0.5943
x2 = 0.2994	0.5972
x2 = 0.3986	0.6025
x2 = 0.5008	0.6166
x2 = 0.5984	0.6366
x2 = 0.7004	0.6596
x2 = 0.798	0.7008
x2 = 0.9002	0.7571

COC(C)(C)C + C1CCCCC1
303.15 K, 101 kPa
Details	viscosity [mPa·s]
x1 = 0.132	0.693
x1 = 0.2612	0.609
x1 = 0.3989	0.536
x1 = 0.5216	0.485
x1 = 0.5654	0.466
x1 = 0.7149	0.42
x1 = 0.8393	0.384

Clc1ccccc1 + C1CCCCC1
Details	viscosity [mPa·s]
293.65 K, 101.33 kPa, x2 = 0.497	0.834
293.85 K, 101.33 kPa, x2 = 0.7	0.8665
294.25 K, 101.33 kPa, x2 = 0.3	0.8152
294.55 K, 101.33 kPa, x2 = 0.4	0.819
294.75 K, 101.33 kPa, x2 = 0.2	0.8056
294.85 K, 101.33 kPa, x2 = 0.8	0.889
295.15 K, 101.33 kPa, x2 = 0.6	0.8189
297.15 K, 101.33 kPa, x2 = 0.1	0.7894
303.05 K, 101.33 kPa, x2 = 0.3	0.738
303.25 K, 101.33 kPa, x2 = 0.7	0.7564
303.25 K, 101.33 kPa, x2 = 0.8	0.7829
303.45 K, 101.33 kPa, x2 = 0.1	0.731
303.75 K, 101.33 kPa, x2 = 0.2	0.7191
303.85 K, 101.33 kPa, x2 = 0.4	0.7276
303.85 K, 101.33 kPa, x2 = 0.6	0.7319
303.95 K, 101.33 kPa, x2 = 0.497	0.7249
308.15 K, 101 kPa, x2 = 0.0465	0.6656
308.15 K, 101 kPa, x2 = 0.1818	0.6489
308.15 K, 101 kPa, x2 = 0.2516	0.6418
308.15 K, 101 kPa, x2 = 0.3629	0.6379
308.15 K, 101 kPa, x2 = 0.4845	0.6421
308.15 K, 101 kPa, x2 = 0.5788	0.6489
308.15 K, 101 kPa, x2 = 0.6926	0.6668
308.15 K, 101 kPa, x2 = 0.807	0.6991
308.15 K, 101 kPa, x2 = 0.9588	0.7386
312.65 K, 101.33 kPa, x2 = 0.1	0.6777
312.75 K, 101.33 kPa, x2 = 0.497	0.6502
312.75 K, 101.33 kPa, x2 = 0.7	0.666
312.95 K, 101.33 kPa, x2 = 0.4	0.6505
312.95 K, 101.33 kPa, x2 = 0.6	0.5637
313.15 K, 101 kPa, x2 = 0.0465	0.6298
313.15 K, 101 kPa, x2 = 0.1818	0.6122
313.15 K, 101 kPa, x2 = 0.2516	0.6045
313.15 K, 101 kPa, x2 = 0.3629	0.5973
313.15 K, 101 kPa, x2 = 0.4845	0.601
313.15 K, 101 kPa, x2 = 0.5788	0.6074
313.15 K, 101 kPa, x2 = 0.6926	0.6254
313.15 K, 101 kPa, x2 = 0.807	0.6532
313.15 K, 101 kPa, x2 = 0.9588	0.689
313.25 K, 101.33 kPa, x2 = 0.2	0.6448
313.45 K, 101.33 kPa, x2 = 0.3	0.6518
313.75 K, 101.33 kPa, x2 = 0.8	0.6758
322.55 K, 101.33 kPa, x2 = 0.497	0.5847
322.55 K, 101.33 kPa, x2 = 0.6	0.585
322.75 K, 101.33 kPa, x2 = 0.3	0.591
322.75 K, 101.33 kPa, x2 = 0.4	0.5803
322.85 K, 101.33 kPa, x2 = 0.7	0.5926
322.85 K, 101.33 kPa, x2 = 0.8	0.6059

C=CC(=O)OCC + C1CCOC1
viscosity [mPa·s], 101 kPa
Details	293.15 K	298.15 K	303.15 K	308.15 K	313.15 K	318.15 K
x2 = 0.0825	0.5547	0.5211	0.4896	0.4554	0.4158	0.3758
x2 = 0.167	0.5422	0.5102	0.4802	0.4474	0.4096	0.3711
x2 = 0.2302	0.5338	0.503	0.4739	0.4421	0.4055	0.3682
x2 = 0.316	0.5237	0.4945	0.4666	0.436	0.401	0.3651
x2 = 0.3892	0.5163	0.4883	0.4613	0.4317	0.3978	0.3631
x2 = 0.4603	0.5102	0.4832	0.457	0.4283	0.3954	0.3617
x2 = 0.5286	0.5051	0.4791	0.4535	0.4256	0.3938	0.361
x2 = 0.5947	0.5011	0.4759	0.4509	0.4236	0.3926	0.3607
x2 = 0.6605	0.4979	0.4734	0.4489	0.4222	0.392	0.3609
x2 = 0.7283	0.4954	0.4716	0.4475	0.4213	0.3919	0.3615
x2 = 0.7874	0.4938	0.4707	0.4468	0.421	0.3922	0.3624
x2 = 0.8689	0.4927	0.4702	0.4466	0.4212	0.3931	0.3642
x2 = 0.936	0.4926	0.4705	0.4471	0.4219	0.3944	0.3661

Clc1ccccc1 + C=C(C)C(=O)OC
303.15 K, 101 kPa
Details	viscosity [mPa·s]
x2 = 0.099	0.6943
x2 = 0.1971	0.6738
x2 = 0.3987	0.6345
x2 = 0.4982	0.6147
x2 = 0.6984	0.5743
x2 = 0.7989	0.5538
x2 = 0.8987	0.5349

Clc1cccc2ccccc12 + C=Cc1ccccc1
viscosity [mPa·s], 101.33 kPa
Details	x2 = 0.1076	x2 = 0.2005	x2 = 0.301	x2 = 0.4032	x2 = 0.5003	x2 = 0.6015	x2 = 0.684	x2 = 0.7992	x2 = 0.9033
298.15 K	2.356	2.07	1.778	1.549	1.379	1.216	1.108	0.9675	0.8331
303.15 K	2.103	1.864	1.617	1.412	1.259	1.115	1.013	0.91	0.8013
308.15 K	1.884	1.677	1.47	1.283	1.152	1.036	0.9455	0.8446	0.7413

CCc1ccccc1 + CC1COC(=O)O1
viscosity [mPa·s], 101 kPa
Details	298.15 K	308.15 K
x2 = 0.0294	0.6462	0.5585
x2 = 0.042	0.6512	0.5634
x2 = 0.0729	0.6609	0.5767
x2 = 0.0821	0.6655	0.5811
x2 = 0.1013	0.6735	0.5908
x2 = 0.2023	0.7164	0.6552
x2 = 0.3008	0.8062	0.7411
x2 = 0.4012	0.9344	0.8533
x2 = 0.5001	1.098	0.9894
x2 = 0.6001	1.302	1.154
x2 = 0.7001	1.544	1.345
x2 = 0.8009	1.827	1.567
x2 = 0.8992	2.14	1.811

COCCOCCOCCOCCOC + CC1COC(=O)O1
298.15 K, 101.33 kPa
Details	viscosity [mPa·s]
x1 = 0.0021	2.505
x1 = 0.0047	2.51
x1 = 0.0111	2.543
x1 = 0.0248	2.604
x1 = 0.0362	2.663
x1 = 0.0516	2.716
x1 = 0.0765	2.814
x1 = 0.1064	2.935
x1 = 0.1537	3.083
x1 = 0.1752	3.145
x1 = 0.2194	3.268
x1 = 0.259	3.355
x1 = 0.3006	3.428
x1 = 0.3585	3.506
x1 = 0.3967	3.56
x1 = 0.4451	3.59
x1 = 0.4956	3.602
x1 = 0.5433	3.607
x1 = 0.6081	3.609
x1 = 0.6396	3.615
x1 = 0.7173	3.588
x1 = 0.782	3.559
x1 = 0.8311	3.541
x1 = 0.896	3.498
x1 = 0.9403	3.466

C=CC(=O)OCC + CC#N
viscosity [mPa·s], 100 kPa
Details	293.15 K	298.15 K	303.15 K	308.15 K	313.15 K	318.15 K
x2 = 0.0611	0.5524	0.5177	0.4854	0.4506	0.4107	0.3704
x2 = 0.1197	0.5374	0.5035	0.472	0.4383	0.3998	0.3611
x2 = 0.1852	0.5211	0.4883	0.4578	0.4254	0.3886	0.3517
x2 = 0.2385	0.5081	0.4762	0.4467	0.4154	0.3801	0.3447
x2 = 0.2966	0.4944	0.4633	0.4348	0.4048	0.3711	0.3374
x2 = 0.3675	0.4781	0.4483	0.421	0.3926	0.3609	0.3293
x2 = 0.436	0.4629	0.4343	0.4082	0.3812	0.3515	0.3219
x2 = 0.4982	0.4496	0.4221	0.3971	0.3714	0.3435	0.3157
x2 = 0.5745	0.4339	0.4078	0.3841	0.3601	0.3343	0.3087
x2 = 0.6519	0.4188	0.394	0.3717	0.3493	0.3257	0.3024
x2 = 0.725	0.4054	0.3819	0.3608	0.34	0.3185	0.2973
x2 = 0.8185	0.3896	0.3678	0.3484	0.3296	0.3108	0.2924
x2 = 0.9145	0.3751	0.3552	0.3378	0.3213	0.3054	0.2901
